SMILES strings stand for the structures. The source made the active and inactive calls. The calls are words filed in the database; no cut-off is given here.

In assay [1] the test system is PC-12. Nature of the assay: Neuroprotective activity against RSL3-induced ferroptosis in rat PC-12 cells assessed as increase in survival rate at 10 uM preincubated with RSL3 stimulation followed by compound addition and measured after 24 hrs by CCK-8 assay. Type of assay: functional, cell-based.
Assay [2] deals with PC-12. Briefly: Neuroprotective activity against RSL3-induced ferroptosis in rat PC-12 cells assessed as increase in survival rate at 10 uM preincubated with RSL3 stimulation followed by compound addition and measured after 24 hrs by CCK-8 assay (reference value: 54%). The format is functional.
In assay [3] the test system is PC-12. Briefly: Upregulation of SLC7A11 expression in RSL3-induced rat PC-12 cells at 10 uM preincubated with compound for 24 hrs followed by RSL3 stimulation and measured after 24 hrs by Western blotting analysis. Type of assay: functional, cell-based. The note with it: time 48.0 hrs.
For assay [4], the system named is PC-12. Briefly: Anti-ferroptosis activity against RSL3-induced ferroptosis in rat PC-12 cells assessed as decrease in lipid peroxidation at 10 uM by BODIPY-C11 581/591 staining based fluorescence microscopic analysis. Type of assay: functional, cell-based.
Assay [5] relates to PC-12. Nature of the assay: Upregulation of ferritin level in RSL3-induced rat PC-12 cells at 10 uM preincubated with compound for 24 hrs followed by RSL3 stimulation and measured after 24 hrs by Western blotting analysis. Type of assay: functional, cell-based. The note with it: time 48.0 hrs.
Assay [6] deals with PC-12. Briefly: Downregulation of NCOA4 level in RSL3-induced rat PC-12 cells at 10 uM preincubated with compound for 24 hrs followed by RSL3 stimulation and measured after 24 hrs by Western blotting analysis. The format is functional, cell-based. The note with it: time 48.0 hrs.
The test system of assay [7] is PC-12. Briefly: Anti-ferroptosis activity against RSL3-induced ferroptosis in rat PC-12 cells assessed as increase in GSH level at 10 uM preincubated with compound for 24 hrs followed by RSL3 stimulation and measured after 24 hrs by […] method. The note with it: time 48.0 hrs. Type of assay: functional, cell-based.
Assay [8] has as its system PC-12. Nature of the assay: Effect on SLC7A11 expression in RSL3-induced rat PC-12 cells at 10 uM preincubated with compound for 24 hrs followed by RSL3 stimulation and measured after 24 hrs by Western blotting analysis. The format is functional, cell-based. The note with it: time 48.0 hrs.

As for `OCc1c[nH]c2ccccc12`, the outcome in the assay with PC-12 [1] was Active.

As to `CC(C)=CCc1ccc2c(c1)NC(=O)C2`, in the assay on PC-12 [2], the Activity came to 77%.

Regarding `C/C=C(C)/C=C(\C)[C@H]1C(C)=C[C@]2(C)C[C@H](C)CC[C@H]2[C@@H]1C(=O)[C@H]1C(=O)NC(=O)[C@@H]1Cc1c[nH]c2ccccc12`, the result with PC-12 [3], in the assay on PC-12 [4], with PC-12 [1], in the assay with PC-12 [5] and in the assay with PC-12 [6] was Active.

On to `C/C(=C\Cc1ccc2c(c1)NC(=O)C2)C(=O)O`, for which the result with PC-12 [4], in the assay on PC-12 [7], with PC-12 [5] and in the assay on PC-12 [6] was Active. Besides, in the assay on PC-12 [8], the outcome was inactive. Also, the Activity in the assay on PC-12 [2] came to 84%.

As for `CC(=O)NCCc1ccc(O)cc1`, the Activity in the assay with PC-12 [2] worked out at 83%.

The values are drawn from ChEMBL document CHEMBL6121020, “Neuroprotective Indole Alkaloids from the Soil-Derived Fungus Trichocladium sp. XZ8” (2025).
